Experiments:
Format in all cases: physicochemical
[1] = XRPD analysis of crystalline form after DSD
From the text: 8. The crystalline form was kept unchanged, as confirmed by XRPD analysis. 9. Through this delicate balance, stabilization of the suspension is accomplished (FIG. 3) in a simpler, effective, reproducible and easily scalable way; additionally, no impact on the polymorphic form was noticeable by XPRD analysis.

[2] = Laboratory study of Ostwald Ripening: particle size growth of size-reduced suspensions stored at different temperatures, LSW model fit
Procedure: 4. In order to confirm that the observed PS instability was being caused by OR phenomenon, a laboratorial study was designed. In this study, two suspensions of MFM were size-reduced via HPH to a different PS (D50=2.0 μm and 3.0 μm) and, afterwards, stored at different temperatures (5° C. and 45° C.). In all cases, PS growth was monitored by considering […] sampling time points (24, 72, 144 and 168 h).
Before fitting the obtained data, a literature review was conducted; several models can be found for OR modeling, with most of them being modifications of the Lifshitz, Slyozov and Wagner (LSW) theory (Eq. 1), which is a kinetic model that translates an isothermal variation of the more general problem (M. Mrotzek, 2008): […]
Based on the above equation, two important observations (M. Mrotzek, 2008) (V. Sadtler, 2002) are expected when in the presence of OR: i) a cubic or quadratic growth (depending on the limiting step) and ii) a more pronounced increase of K for higher temperatures. As shown in FIG. 2 (left plot), both previous observations are valid for the current case-study, thus supporting the presence of OR; in this plot, r^3-r0^3 was represented as a function of time and the K value determined by performing a linear regression where Eq. 1 was assumed as the theoretical model; as shown in […] (right plot) a good correlation coefficient was obtained (R^2=0.94).

[3] = Particle size (in-process control) after high pressure homogenization and during spray drying, with and without DSD
Procedure: 1. Mometasone furoate monohydrate (2330 g) was suspended in water (23000 g) and stirred for 5 hours in order to obtain a uniform suspension; afterwards, it was fed to a lab scale HPH apparatus operating at pressures ranging from 757.5 to 1363.5 bar in recirculation mode (returning the discharge of the HPH to the stirred vessel inlet), having this step ended with a Dv50˜2 μm after 63 hours of operation;
2. After the homogenization step described in point 1. above, particle size of the active pharmaceutical ingredient was within target and the suspension was fed to a lab scale spray dryer in order to isolate the active pharmaceutical ingredient in the form of a powder;
3. […] Due to this unstable behavior (the final material properties were trending out of targets) the batch had to be interrupted to accommodate an investigation.
6. In order to move forward with the manufacturing of the mentioned batch and following ones, the dynamic suspension drying (DSD) was applied targeting the stabilization of the suspension during drying for that purpose the suspension was recycled at a moderated pressure of 455 bar.

- crystalline form after DSD [1]: unchanged
- Ostwald Ripening at 5° C. for target D50 range ([2]; D50 ~2 μm, 5° C., water as anti-solvent): still significant
- Ostwald Ripening rate constant K at 5° C. compared to 45° C. ([2]; suspensions size-reduced to D50 = 2.0 μm and 3.0 μm, stored at 5° C. and 45° C., up to 168 h): more than five times lower
- Dv50 at end of HPH step ([3]; suspension in water, HPH at 757.5 to 1363.5 bar in recirculation mode, after 63 hours of operation): ~2 μm
- Dv50 of isolated product manufactured through DSD ([3]; suspension recycled to HPH at 455 bar during drying, on average, FIG. 4): ~2 μm
SMILES: C[C@@H]1C[C@H]2[C@@H]3CCC4=CC(=O)C=C[C@]4(C)[C@@]3(Cl)[C@@H](O)C[C@]2(C)[C@@]1(OC(=O)c1ccco1)C(=O)CCl [Mometasone furoate monohydrate]
- particle size trend during isolating step (spray drying) without recirculation ([3]; suspension kept under stirring in feed vessel, no DSD, FIG. 2): increasing values of particle size were observed over time
